# According to PubChem BioAssay AID463203 (Broad Institute, 2010):
# Activity calls are given as the source filed them.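 The calls were made as follows: active = more than half of replicate measurements showing over 20% loss of kinase signal relative to plate controls; inconclusive = some but at most half of replicates over 20% loss; inactive = no replicate over 20% signal loss.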
# Molecular target: Glycogen synthase kinase-3 alpha (Homo sapiens) (UniProt P49840)
# Assay: concentration-response blocking of human GSK3A – biochemical, luminescence, cell-free homogeneous, retest, dose response (AID 463203)
# Settings: GSK-3 alpha enzyme, ADP-Glo luminescence, 60 min
# Sequence of Glycogen synthase kinase-3 alpha (Homo sapiens) (P49840 whole entry, looked up): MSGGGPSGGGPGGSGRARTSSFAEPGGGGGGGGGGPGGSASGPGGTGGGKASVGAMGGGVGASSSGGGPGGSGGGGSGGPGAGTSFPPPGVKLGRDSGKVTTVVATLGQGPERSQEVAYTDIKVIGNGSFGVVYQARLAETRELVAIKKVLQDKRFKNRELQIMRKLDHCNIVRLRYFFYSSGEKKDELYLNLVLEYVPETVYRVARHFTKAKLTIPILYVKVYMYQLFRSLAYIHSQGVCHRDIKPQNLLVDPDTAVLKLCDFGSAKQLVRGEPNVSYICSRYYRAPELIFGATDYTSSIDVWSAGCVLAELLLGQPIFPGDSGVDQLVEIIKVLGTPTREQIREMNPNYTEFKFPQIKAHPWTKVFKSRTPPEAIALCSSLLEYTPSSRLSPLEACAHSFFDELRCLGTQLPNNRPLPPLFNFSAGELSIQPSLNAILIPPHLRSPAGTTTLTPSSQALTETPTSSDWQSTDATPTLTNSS
row,SMILES,AC50
1,CCOC(=O)c1c(NC(=O)CN2C(=O)NC3(CCC(C)CC3)C2=O)sc(C)c1CC (centres undefined),> 30 µM (inactive)
2,COc1ccc(OCC(=O)NCCCn2ccnc2)cc1,> 30 µM (inactive)
3,CCOC(=O)c1cc(-c2ccc(F)cc2)n(CC(=O)NC(C)CC)c1C (centres undefined),> 30 µM (inactive)
4,NC1=NC(=O)/C(=C\c2ccco2)S1,> 30 µM (inactive)
5,CCOC(=O)C1CCN(c2c(C(=O)c3ccccc3)cnc3ccc(CC)cc23)CC1,> 30 µM (inactive)
6,COc1cccc(-n2c(SCC(N)=O)nnc2-c2ccco2)c1,> 30 µM (inactive)
7,COC(=O)c1sccc1NC(=O)c1ccccc1,> 30 µM (inactive)
8,Cc1ccnc(NC(=O)CN2C(=O)c3ccccc3S2(=O)=O)c1,> 30 µM (inactive)
9,Cc1c(C)n(CCCN(C)C)c2ncnc(NC3CCCCC3)c12,> 30 µM (inactive)
10,C=C(C)CSc1nnc([C@@H](N)Cc2c[nH]c3ccccc23)o1,> 30 µM (inactive)
11,O=c1[nH]c(=O)n(CCC2=CCCCC2)c(O)c1C=NCCCn1ccnc1,28.6 µM
12,CCOc1ccc(-c2nnc(N)s2)cc1,> 30 µM (inactive)
13,CCOC(=O)N1CCC(N2CCN(S(=O)(=O)c3ccc([N+](=O)[O-])cc3)CC2)CC1,> 30 µM (inactive)
14,COC(=O)c1sc2nc(N3CCCCC3)c3c(c2c1N)CCCC3,> 30 µM (inactive)
15,CC(=NCCCn1ccnc1)c1c(O)n(C2CCCCC2)c(=O)[nH]c1=O,6.77 µM
16,CCOC(=O)CSc1nc(C)[nH]c1[N+](=O)[O-],> 30 µM (inactive)
17,COc1ccc(C(=O)c2ccccc2Cl)cc1,> 30 µM (inactive)
18,O=c1[nH]nc(SCCS(=O)(=O)c2ccc(F)cc2)n1-c1ccccc1,22.9 µM
19,CC(=O)c1cccc(-c2ccc3c(=O)[nH]c(Nc4ccccc4)cc3c2)c1,> 30 µM (inactive)
20,COc1ccc(C(=O)NCC(=O)N/N=C/C(C)=C/c2ccccc2)cc1OC,> 30 µM (inactive)
21,Cc1nn(-c2ccccc2)c(C)c1/C=C/C(=O)OCC(=O)Nc1ccc(C(N)=O)cc1,> 30 µM (inactive)
22,O=C(NCCc1csc(-c2ccccc2)n1)c1ccc(Br)o1,17.4 µM
23,O=[N+]([O-])c1ccc(NCCCN2CCOCC2)c(Cl)c1,> 30 µM (inactive)
24,OCC1OC(n2cnc3c(NCCc4ccccc4)ncnc32)C(O)C1O (centres undefined),> 30 µM (inactive)
25,COc1ccc(O)c(-c2nc(N)nc(N)n2)c1,3.88 µM
26,COC(=O)C1=C(C)Nc2ncnn2C1c1ccco1 (centres undefined),> 30 µM (inactive)

row,SMILES,AC50
1,O=C(CCCN1C(=O)C2CCCCN2C1=O)N1CCN(c2ccc([N+](=O)[O-])cc2)CC1 (centres undefined),> 30 µM (inactive)
2,CCOC(=O)c1cnn(Cc2ccccc2Cl)c1N,> 30 µM (inactive)
3,CCC(C)c1ccc(NC(=S)NCc2cccs2)cc1 (centres undefined),> 30 µM (inactive)
4,c1ccc2c(c1)c1ccccc1n1c(-c3ccc4c(c3)OCO4)nnc21,> 30 µM (inactive)
5,CN1/C(=C\C=C\C2=[N+](C)c3ccc4ccccc4c3C2(C)C)C(C)(C)c2ccccc21,10.3 µM
6,CCCCOC(=O)C1=C(C)Nc2ncnn2C1c1ccc(OC)c(OC)c1OC (centres undefined),12.4 µM
7,COc1ccccc1Nc1ccc(S(=O)(=O)N2CCCCC2)cc1[N+](=O)[O-],> 30 µM (inactive)
8,CCc1ccc(C2CC(c3ccc(F)cc3)Nc3nc(N)nn32)cc1 (centres undefined),> 30 µM (inactive)
9,COc1ccc(CCNc2nc(C)c(C(C)=O)s2)cc1OC,> 30 µM (inactive)
10,COc1ccc(-c2nc(N)ncc2-c2ccccc2)c(O)c1,15.5 µM
11,COc1ccccc1C(=O)NNC(=O)c1cccc(Br)c1,> 30 µM (inactive)
12,O=c1[nH]c(=S)n(CCC2=CCCCC2)c(O)c1C=NCCCn1ccnc1,14.3 µM
13,O=c1cc(-c2ccccc2)oc2ccccc12,> 30 µM (inactive)
14,CN(C)c1cccc(C(=O)N/N=C/c2ccccc2F)c1,> 30 µM (inactive)
15,Cc1cccc(N2CC(C(=O)Nc3nccs3)CC2=O)c1C (centres undefined),> 30 µM (inactive)
16,COCCNc1nc(C)cc(-c2cc(C(=O)NC3CCCC3)on2)n1,> 30 µM (inactive)
17,O=c1c2ccccc2oc2cc(NCCCn3ccnc3)ccc12,> 30 µM (inactive)
18,CCOC(=O)c1cc(-c2ccc(F)cc2)n(CC(=O)NCc2ccccn2)c1C,> 30 µM (inactive)
19,Cc1ccc(-c2nnc(N3CCN(C(=O)COc4cccc(C)c4)CC3)c3ccccc23)cc1,> 30 µM (inactive)
20,CCOCC(=O)Nc1nc2ccc(OCC)cc2s1,> 30 µM (inactive)
21,CCc1cccc(NC(=O)C2CCN(c3ncnc4sc(C)c(C)c34)CC2)c1,> 30 µM (inactive)
22,Cc1ccc(C(=O)N2NC(c3ccccc3F)C3C(=O)N(c4cccc(C)c4)C(=O)C32)cc1 (centres undefined),> 30 µM (inactive)
23,Cc1nc(NC(=O)c2ccc(Br)o2)sc1C,> 30 µM (inactive)
24,O=C(O)Cn1cc(/C=N/NC(=O)c2cc3cc(Br)ccc3o2)c2ccccc21,6.05 µM
25,COc1ccc(NC(=O)Nc2ccc(Br)c(C)c2)cc1,> 30 µM (inactive)
26,O=c1[nH]ncc(N/N=C\c2cccs2)c1Cl,6.07 µM

row,SMILES,AC50
1,O=C(Nc1cccc(F)c1)C1CCCN1S(=O)(=O)c1cccc2cccnc12 (centres undefined),11.8 µM
2,CCCCSc1nc(N)c(C#N)c(-c2cccs2)c1C#N,> 30 µM (inactive)
3,Cc1ccc(C2CC(=O)N3CN(Cc4ccco4)CSC3=C2C#N)cc1 (centres undefined),> 30 µM (inactive)
4,CCOc1ccc2nnc(-c3ccc(Br)cc3)n2n1,> 30 µM (inactive)
5,Cc1cccc(C)c1OC(=O)Cc1ccccc1,> 30 µM (inactive)
6,O=C1N/C(=N\S(=O)(=O)Cc2ccccc2)S/C1=C/c1cccc([N+](=O)[O-])c1,> 30 µM (inactive)
7,O=[N+]([O-])c1ccc(N/N=C/c2ccc(OCc3cccc4ccccc34)cc2)nc1,> 30 µM (inactive)
8,Cc1cc(C)c2[nH]c(O)c(N=Nc3ccc(C(=O)O)cc3)c2c1,> 30 µM (inactive)
9,CC(C)COc1ncnc2c1sc1nc3c(cc12)COC(C)(C)C3,> 30 µM (inactive)
10,Cc1c(CCC(=O)O)c(=O)oc2cc(O)ccc12,> 30 µM (inactive)
11,O=C(NCCO)c1ccccc1O,> 30 µM (inactive)
12,COc1ccccc1OCC(=O)Nc1sc2c(c1C(N)=O)CCC2,> 30 µM (inactive)
13,COc1ccc(Nc2ccc(S(=O)(=O)N3CCCCC3)cc2[N+](=O)[O-])cc1OC,> 30 µM (inactive)
14,Cc1nc(SCC(=O)NCC2CCCO2)c2c3c(sc2n1)CCCC3 (centres undefined),> 30 µM (inactive)
15,Cc1n[nH]c(=S)n1/N=C/c1ccc(-c2ccccc2[N+](=O)[O-])o1,24.9 µM
16,COc1ccccc1N=c1oc2c(OC)cccc2cc1C(=O)NCc1ccco1,> 30 µM (inactive)
17,O=C(Nc1nccs1)C1CCN(S(=O)(=O)c2cnc[nH]2)CC1,> 30 µM (inactive)
18,COc1ccc2[nH]c(C)c(CN3CCCCC3)c(=O)c2c1,> 30 µM (inactive)
19,COc1ccc(N=Nc2c(C)n[nH]c2C)cc1,> 30 µM (inactive)
20,O=[N+]([O-])c1cc(S(=O)(=O)c2ccc(N3CCCCC3)c([N+](=O)[O-])c2)ccc1N1CCCCC1,> 30 µM (inactive)
21,CC(C)CCSc1cc(NCCO)c([N+](=O)[O-])c2nonc12,> 30 µM (inactive)
22,CC(=O)Nc1ccc(C2(c3ccc(NC(C)=O)cc3)NC(=O)c3ccccc32)cc1,> 30 µM (inactive)
23,Nc1nonc1-n1nnc(C(=O)N/N=C/c2ccncc2)c1CSc1ccc(Cl)cc1,> 30 µM (inactive)
24,Cc1ccc2nc(-c3ccncc3)[nH]c2c1,> 30 µM (inactive)
25,CCn1ccc(C(=O)Nc2ccsc2C(=O)OC)n1,30.8 µM
26,NC1=NC(=O)/C(=C/c2ccc(-c3ccc(S(N)(=O)=O)cc3)o2)S1,0.397 µM

row,SMILES,AC50
1,CN(C(=O)Oc1ccc([N+](=O)[O-])cc1)c1ccccc1,> 30 µM (inactive)
2,CC(C)CN(C(=O)CN1CC=C(c2ccccc2)CC1)c1c(N)n(CC(C)C)c(=O)[nH]c1=O,> 30 µM (inactive)
3,Cc1cc(C)cc(NC(=O)CSCc2nc3c(nnn3Cc3ccc(F)cc3)c(=O)[nH]2)c1,> 30 µM (inactive)
4,CCOc1cc(/C=C2\SC(N)=NC2=O)ccc1O,22.9 µM
5,CC1(C)Oc2ccc3ccc(=O)oc3c2-c2cn[nH]c21,7.97 µM
6,N#CC1=C2SCN(c3ccccc3)CN2C(=O)CC1c1ccccc1Cl (centres undefined),> 30 µM (inactive)
7,CCOc1ccc(-c2ncncc2-c2ccc(OC)cc2)c(O)c1,> 30 µM (inactive)
8,Cc1onc(-c2ccccc2Cl)c1C(=O)Nc1cccc(-c2cn3cccnc3n2)c1,> 30 µM (inactive)
9,N#C/C(=N\Nc1ccc(Cl)cc1)C(N)=S,> 30 µM (inactive)
10,COc1ccccc1NC(=O)CSc1nnc(-c2ccncc2)o1,> 30 µM (inactive)
11,CC(=O)c1cc(-c2ccc(F)cc2)n(CCC(=O)Nc2cccnc2)c1C,> 30 µM (inactive)
12,O=c1[nH]cnc(O)c1N=Nc1ccccc1,9.87 µM
13,O=C(NCCCN1CCN(CCCNC(=O)c2ccc3c(c2)OCO3)CC1)c1ccc2c(c1)OCO2,27.7 µM
14,Cc1ccccc1/C=N/Nc1nc2ccccc2[nH]1,> 30 µM (inactive)
15,c1ccc2c(c1)Sc1ccccc1-n1cnnc1-2,> 30 µM (inactive)
16,Cc1cc(=O)[nH]c2ccccc12,> 30 µM (inactive)
17,O=C(CSc1nnc(-c2ccncc2)s1)Nc1ccccc1,> 30 µM (inactive)
18,CC(C)(C)NC(=O)/C(=C\C=C\c1ccccc1)NC(=O)c1ccc([N+](=O)[O-])cc1,> 30 µM (inactive)
19,COc1ccc(Br)cc1C1CC(=O)N2CN(Cc3ccccc3)CSC2=C1C#N (centres undefined),> 30 µM (inactive)
20,COc1cccc(NC(=O)[C@@H]2CCCN2S(=O)(=O)c2cccc3cccnc23)c1,18.1 µM
21,CN(Cc1c(C(=O)N/N=C/c2ccc(O)cc2)nnn1-c1nonc1N)c1ccccc1,0.243 µM
22,C/C(=N\NC(=O)c1nnn(-c2nonc2N)c1CN1CCCCCC1)c1ccc(Br)cc1,29.7 µM
23,COc1ccc(OC)c(C(=O)c2c(C)oc3cc(Br)c(O)c(CN(C)C)c23)c1,> 30 µM (inactive)
24,Cc1csc(NC(=O)c2ccc3c(c2)OCO3)n1,> 30 µM (inactive)
25,O=C(O)c1ccc2c(c1)C(=O)N(CCCCCCCN1C(=O)c3ccc(C(=O)O)cc3C1=O)C2=O,22.2 µM
26,CCOC(=O)c1nnn(-c2nonc2N)c1-c1cccc2ccccc12,27.9 µM
